# Target: T1, Axl (Homo sapiens, UniProt P30530)
# T1 construct: endogenous in cells; host or cells: HeLa cells
# T1 sequence (P30530 26-894): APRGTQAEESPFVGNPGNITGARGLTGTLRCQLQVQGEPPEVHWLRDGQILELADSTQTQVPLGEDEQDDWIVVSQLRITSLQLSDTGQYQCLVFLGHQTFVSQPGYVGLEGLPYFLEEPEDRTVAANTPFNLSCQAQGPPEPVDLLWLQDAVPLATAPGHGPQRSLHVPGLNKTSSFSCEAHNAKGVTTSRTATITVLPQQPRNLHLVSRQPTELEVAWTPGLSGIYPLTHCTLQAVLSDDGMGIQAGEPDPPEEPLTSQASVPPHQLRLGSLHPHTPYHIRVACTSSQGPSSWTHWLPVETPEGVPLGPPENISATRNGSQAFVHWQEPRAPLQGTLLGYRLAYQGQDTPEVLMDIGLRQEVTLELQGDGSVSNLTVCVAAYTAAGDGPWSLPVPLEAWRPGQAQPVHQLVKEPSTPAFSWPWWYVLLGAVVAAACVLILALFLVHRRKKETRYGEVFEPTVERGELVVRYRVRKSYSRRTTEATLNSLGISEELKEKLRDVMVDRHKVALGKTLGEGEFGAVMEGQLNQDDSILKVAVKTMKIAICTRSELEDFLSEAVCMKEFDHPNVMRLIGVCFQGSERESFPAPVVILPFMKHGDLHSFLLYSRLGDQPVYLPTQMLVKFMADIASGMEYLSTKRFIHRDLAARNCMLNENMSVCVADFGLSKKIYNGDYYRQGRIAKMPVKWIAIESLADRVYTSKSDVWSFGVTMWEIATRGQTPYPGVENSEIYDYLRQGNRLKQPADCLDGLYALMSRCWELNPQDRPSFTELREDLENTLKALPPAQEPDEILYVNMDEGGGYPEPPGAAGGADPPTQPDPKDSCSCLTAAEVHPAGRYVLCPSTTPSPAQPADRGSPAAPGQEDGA
# Experiment: Phospho-Akt In-Cell Western Assay (inhibition of Axl activity after Axl-antibody cross-linking)
# Type: cell-based
# Conditions: not given
# In short: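 Phospho-Akt was detected in formaldehyde-fixed cells by in-cell immunostaining with HRP chemiluminescence. Before fixation, HeLa cells kept 24 h in low-serum medium containing 500 ng/mL Axl/Fc received compound for 1 h at 37 °C, followed by 5-min Axl activation through antibody clustering.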
row,Structure (SMILES),IC50 [µM]
1,"Nc1nc(Nc2ccc(N3CCC(N4C(=O)Cc5ccccc54)CC3)c(F)c2)n(-c2cc3c(nn2)-c2ccccc2CCC3)n1 [Compound 157, 1-(6,7-dihydro-5H-benzo[6,7]cyclohepta[1,2-c]pyridazin-3-yl)-N^5-(3-fluoro-4-(4-(indolin-2-on-1-yl)piperidin-1-yl)phenyl)-1H-1,2,4-triazole-3,5-diamine]",> 20

# Same assay, conditions: Hela cells, phospho-Akt chemiluminescence normalized to relative cell number; compounds of formula (Ib), Table 2; read-out: IC50
row,Structure (SMILES),IC50 [µM]
1,"Nc1nc(Nc2ccc(N3CCC(N4CCOCC4)CC3)c(F)c2)n(-c2cc3c(nn2)-c2ccccc2CCC3)n1 [Compound 158, 1-(6,7-dihydro-5H-benzo[6,7]cyclohepta[1,2-c]pyridazin-3-yl)-N^5-(3-fluoro-4-(4-(morpholin-4-yl)piperidin-1-yl)phenyl)-1H-1,2,4-triazole-3,5-diamine]",> 20
2,"CN(C)Cc1nc2cc(Nc3nc(N)nn3-c3cc4c(nn3)-c3ccccc3CCC4)ccc2[nH]1 [Compound 159, 1-(6,7-dihydro-5H-benzo[6,7]cyclohepta[1,2-c]pyridazin-3-yl)-N^5-(2-((dimethylamino)methyl)-1H-benzo[d]imidazol-5-yl)-1H-1,2,4-triazole-3,5-diamine]",> 20
3,"CC1CN(c2ccc(Nc3nc(N)nn3-c3cc4c(nn3)-c3ccccc3CCC4)cc2)CC(C)N1 (centres unmarked) [Compound 160, 1-(6,7-dihydro-5H-benzo[6,7]cyclohepta[1,2-c]pyridazin-3-yl)-N^5-(4-(3,5-dimethylpiperazin-1-yl)phenyl)-1H-1,2,4-triazole-3,5-diamine]",< 1
4,"CN(C1CCc2ccc(Nc3nc(N)nn3-c3cc4c(nn3)-c3ccccc3CCC4)cc2CC1)C1CC2CCC1C2 (centres unmarked) [Compound 161, 1-(6,7-dihydro-5H-benzo[6,7]cyclohepta[1,2-c]pyridazin-3-yl)-N^5-(7-((bicyclo[2.2.1]heptan-2-yl)(methyl)amino)-6,7,8,9-tetrahydro-5H-benzo[7]annulene-2-yl)-1H-1,2,4-triazole-3,5-diamine]",1 to 10
5,"CN1CCN(c2ccc(Nc3nc(N)nn3-c3cc4c(nn3)-c3ccccc3N(C)CC4)cc2)CC1 [Compound 162, 1-(7-methyl-6,7-dihydro-5H-benzo[2,3]azepino[4,5-c]pyridazin-3-yl)-N^5-(4-(N-methylpiperazin-1-yl)phenyl)-1H-1,2,4-triazole-3,5-diamine]",> 20
6,"Nc1nc(Nc2ccc(CC3C(=O)Nc4ccc(F)cc43)cc2)n(-c2cc3c(nn2)-c2ccccc2CCC3)n1 (centres unmarked) [Compound 163, 1-(6,7-dihydro-5H-benzo[6,7]cyclohepta[1,2-c]pyridazin-3-yl)-N^5-(4-((5-fluoroindolin-2-on-3-yl)methyl)phenyl)-1H-1,2,4-triazole-3,5-diamine]",> 20
7,"Nc1nc(Nc2ccc(N3CCC(N4CCCC4)CC3)cc2)n(-c2cc3c(nn2)-c2ccccc2CCC3)n1 [Compound 164, 1-(6,7-dihydro-5H-benzo[6,7]cyclohepta[1,2-c]pyridazin-3-yl)-N^5-(4-(4-pyrrolidin-1-ylpiperidinyl)phenyl)-1H-1,2,4-triazole-3,5-diamine]",1 to 10
8,"Nc1nc(Nc2ccc(CN3CCC(N4CCCC4)CC3)cc2)n(-c2cc3c(nn2)-c2ccccc2CCC3)n1 [Compound 165, 1-(6,7-dihydro-5H-benzo[6,7]cyclohepta[1,2-c]pyridazin-3-yl)-N^5-(4-((4-pyrrolidin-1-ylpiperidinyl)methyl)phenyl)-1H-1,2,4-triazole-3,5-diamine]",< 1
9,"Nc1nc(Nc2ccc(CN3CCN(C4CCCC4)CC3)cc2)n(-c2cc3c(nn2)-c2ccccc2CCC3)n1 [Compound 166, 1-(6,7-dihydro-5H-benzo[6,7]cyclohepta[1,2-c]pyridazin-3-yl)-N^5-(4-((4-cyclopentylpiperazinyl)methyl)phenyl)-1H-1,2,4-triazole-3,5-diamine]",1 to 10
10,"CC(C)N1CCN(Cc2ccc(Nc3nc(N)nn3-c3cc4c(nn3)-c3ccccc3CCC4)cc2)CC1 [Compound 167, 1-(6,7-dihydro-5H-benzo[6,7]cyclohepta[1,2-c]pyridazin-3-yl)-N^5-(4-((4-isopropylpiperazinyl)methyl)phenyl)-1H-1,2,4-triazole-3,5-diamine]",1 to 10
11,"CN1CCC(N2CCN(c3ccc(Nc4nc(N)nn4-c4cc5c(nn4)-c4ccccc4CCC5)cc3F)CC2)CC1 [Compound 168, 1-(6,7-dihydro-5H-benzo[6,7]cyclohepta[1,2-c]pyridazin-3-yl)-N^5-(3-fluoro-4-(4-N-methylpiperid-4-ylpiperazinyl)phenyl)-1H-1,2,4-triazole-3,5-diamine]",1 to 10
12,"CN1CCC2(CCN(c3ccc(Nc4nc(N)nn4-c4cc5c(nn4)-c4ccccc4CCC5)cc3F)C2)C1 (centres unmarked) [Compound 169, 1-(6,7-dihydro-5H-benzo[6,7]cyclohepta[1,2-c]pyridazin-3-yl)-N^5-(3-fluoro-4-(7-methyl-2,7-diazaspiro[4.4]nonan-2-yl)phenyl)-1H-1,2,4-triazole-3,5-diamine]",1 to 10
13,"Nc1nc(Nc2ccc(N3CC(N4CCCC4)C3)c(F)c2)n(-c2cc3c(nn2)-c2ccccc2CCC3)n1 [Compound 170, 1-(6,7-dihydro-5H-benzo[6,7]cyclohepta[1,2-c]pyridazin-3-yl)-N^5-(3-fluoro-4-(3-pyrrolidin-1-ylazetidinyl)phenyl)-1H-1,2,4-triazole-3,5-diamine]",1 to 10
14,"Cc1cc(Nc2nc(N)nn2-c2cc3c(nn2)-c2ccccc2CCC3)ccc1N1CCC(N2CCN(C)CC2)CC1 [Compound 171, 1-(6,7-dihydro-5H-benzo[6,7]cyclohepta[1,2-c]pyridazin-3-yl)-N^5-(3-methyl-4-(4-(N-methylpiperazin-4-yl)piperidin-1-yl)phenyl)-1H-1,2,4-triazole-3,5-diamine]",> 20

# Same assay, conditions: inhibition of Axl activity; Table 1, compounds of formula (Ia); read-out: IC50
row,Structure (SMILES),IC50 [µM]
1,"Nc1nc(Nc2ccc3c(c2)CCC(N2CCCCC2)CC3)nn1-c1cc2c(nn1)-c1ccccc1CCC2 (centres unmarked) [Compound 150, 1-(6,7-dihydro-5H-benzo[6,7]cyclohepta[1,2-c]pyridazin-3-yl)-N^3-((7-piperidin-1-yl)-6,7,8,9-tetrahydro-5H-benzo[7]annulene-2-yl)-1H-1,2,4-triazole-3,5-diamine]",< 1
2,"Nc1nc(Nc2ccc3c(c2)CCC(N2CCC2)CC3)nn1-c1cc2c(nn1)-c1ccccc1CCC2 (centres unmarked) [Compound 151, 1-(6,7-dihydro-5H-benzo[6,7]cyclohepta[1,2-c]pyridazin-3-yl)-N^3-((7-azetidin-1-yl)-6,7,8,9-tetrahydro-5H-benzo[7]annulene-2-yl)-1H-1,2,4-triazole-3,5-diamine]",< 1
3,"Nc1nc(Nc2cnc3c(c2)CCC(N2CCCC2)CC3)nn1-c1cc2c(nn1)-c1ccccc1CCC2 (centres unmarked) [Compound 152, 1-(6,7-dihydro-5H-benzo[6,7]cyclohepta[1,2-c]pyridazin-3-yl)-N^3-((7-pyrrolidin-1-yl)-6,7,8,9-tetrahydro-5H-cyclohepta[b]pyridine-3-yl)-1H-1,2,4-triazole-3,5-diamine]",< 1
4,"Nc1nc(Nc2ccc3c(c2)CN(C2CCCC2)CC3)nn1-c1cc2c(nn1)-c1ccccc1CCC2 [Compound 153, 1-(6,7-dihydro-5H-benzo[6,7]cyclohepta[1,2-c]pyridazin-3-yl)-N^3-(2-cyclopentyl-1,2,3,4-tetrahydroisoquinolin-7-yl)-1H-1,2,4-triazole-3,5-diamine]",< 1
5,"Nc1nc(Nc2ccc(I)cc2)nn1-c1cc2c(nn1)-c1ccccc1CCC2 [Compound 156, 1-(6,7-dihydro-5H-benzo[6,7]cyclohepta[1,2-c]pyridazin-3-yl)-N^3-(4-iodophenyl)-1H-1,2,4-triazole-3,5-diamine]",> 20
